Data reported in patent US8580773B2, “Small-molecule inhibitors of the androgen receptor” (The Regents of the University of California, priority 2008, dated 2013).
Where a name gives a salt, the structure may show the parent alone.

How the values were obtained:
endogenous AR [1] = molecular target: T1, endogenous AR (Homo sapiens, UniProt P10275); type: cell-based; conditions: LAPC4, 3 nM DHT plus 1 μM BIC, 100 nM PP or 100 nM HH
T1 construct: that each express endogenous AR; endogenous in cells; host or cells: LAPC4
T1 sequence (P10275 1-920): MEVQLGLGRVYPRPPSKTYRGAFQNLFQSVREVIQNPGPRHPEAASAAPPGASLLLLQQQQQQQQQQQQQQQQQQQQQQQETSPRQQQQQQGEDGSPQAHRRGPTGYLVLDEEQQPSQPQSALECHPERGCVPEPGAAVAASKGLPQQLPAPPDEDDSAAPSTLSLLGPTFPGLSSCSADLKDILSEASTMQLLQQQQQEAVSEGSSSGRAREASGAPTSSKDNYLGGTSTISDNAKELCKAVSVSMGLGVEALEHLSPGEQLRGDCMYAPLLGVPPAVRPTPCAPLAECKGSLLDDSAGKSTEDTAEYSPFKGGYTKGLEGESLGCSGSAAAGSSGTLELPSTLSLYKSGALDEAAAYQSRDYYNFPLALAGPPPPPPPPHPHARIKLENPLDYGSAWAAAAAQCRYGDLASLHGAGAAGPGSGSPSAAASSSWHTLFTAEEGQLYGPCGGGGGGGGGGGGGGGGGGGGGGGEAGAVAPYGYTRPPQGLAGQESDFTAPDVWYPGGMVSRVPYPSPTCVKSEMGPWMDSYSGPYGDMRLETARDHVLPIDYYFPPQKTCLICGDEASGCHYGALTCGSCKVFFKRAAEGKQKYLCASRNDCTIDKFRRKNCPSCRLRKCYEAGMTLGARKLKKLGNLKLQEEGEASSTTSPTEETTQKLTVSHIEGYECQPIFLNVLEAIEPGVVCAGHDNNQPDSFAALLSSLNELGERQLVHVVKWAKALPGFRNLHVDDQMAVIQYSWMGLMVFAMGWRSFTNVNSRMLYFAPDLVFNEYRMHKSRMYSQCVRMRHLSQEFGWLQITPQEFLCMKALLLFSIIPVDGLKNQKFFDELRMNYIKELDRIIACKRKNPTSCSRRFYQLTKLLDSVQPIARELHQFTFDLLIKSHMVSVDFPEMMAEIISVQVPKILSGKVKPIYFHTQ
Procedure: (§1) LAPC4 and LNCaP cells were grown in the presence or absence of 3 nM DHT in charcoal-stripped media, with or without the inhibitors. RNA was harvested using an RNAeasy kit (Qiagen) and reverse transcribed (MMLV-RT, Invitrogen). Real-time PCR was carried out on a 7300 Real Time PCR System (Applied Biosystems) using SYBR green as the detecting dye and Rox as the reference dye. The androgen responsive genes kalikrein 3, or PSA (KLK3) [Cleutjens, K. B., et al., Two androgen response regions cooperate in steroid hormone regulated activity of the prostate-specific antigen promoter. J Biol Chem, 1996. 271(11): p. 6379-88; Nelson, P. S., et al., The program of androgen-responsive genes in neoplastic prostate epithelium. Proc Natl Acad Sci USA, 2002. 99(18): p. 11890-5), metalloproteinase 16 (MMP16) (Nelson, P. S., et al., The program of androgen-responsive genes in neoplastic prostate epithelium. Proc Natl Acad Sci USA, 2002. 99(18): p. 11890-5), transmembrane protease serine 2 (TMPRSS2) (Nelson, P. S., et al., The program of androgen-responsive genes in neoplastic prostate epithelium. Proc Natl Acad Sci USA, 2002. 99(18): p. 11890-5; […] Vaarala, M. H., et al., Expression of transmembrane serine protease TMPRSS2 in mouse and human tissues. J Pathol, 2001. 193(1): p. 134-40), FK506-binding immunophilin 51 (FKBP51) (Nelson, P. S., et al., The program of androgen-responsive genes in neoplastic prostate epithelium. Proc Natl Acad Sci USA, 2002. 99(18): p. 11890-5; Amler, L. C., et al., Dysregulated expression of androgen-responsive and nonresponsive genes in the androgen-independent prostate cancer xenograft model CWR22-R1. Cancer Res, 2000. 60(21): p. 6134-41; Velasco, A. M., et al., Identification and validation of novel androgen-regulated genes in prostate cancer. Endocrinology, 2004. 145(8): p. 3913-24; Magee, J. A., et al., Direct, androgen receptor-mediated regulation of the FKBP5 gene via a distal enhancer element. Endocrinology, 2006. 147(1): p. 590-8), G-protein coupled receptor RDC1 homolog, or chemokine orphan receptor 1 (RDC-1) (Nelson, P. S., et al., The program of androgen-responsive genes in neoplastic prostate epithelium. Proc Natl Acad Sci USA, 2002. 99(18): p. 11890-5), NK homeobox family member 3 (NRx3.1) (Nelson, P. S., et al., The program of androgen-responsive genes in neoplastic prostate epithelium. Proc Natl Acad Sci USA, 2002. 99(18): p. 11890-5; Bieberich, C. J., et al., Prostate-specific and androgen-dependent expression of a novel homeobox gene. J Biol Chem, 1996. 271(50): p. 31779-82; […]) were all normalized to the transcription of the housekeeping ribosomal gene (RPL19). All samples were done in triplicate and separately normalized.

endogenous AR [2] = molecular target: T2, endogenous AR (Homo sapiens, UniProt P10275, T878A); type: cell-based; conditions: LNCaP, 3 nM DHT plus 1 μM BIC, 100 nM PP or 100 nM HH
T2 construct: that each express endogenous AR; endogenous in cells; host or cells: LNCaP
T2 sequence (P10275 whole entry T878A): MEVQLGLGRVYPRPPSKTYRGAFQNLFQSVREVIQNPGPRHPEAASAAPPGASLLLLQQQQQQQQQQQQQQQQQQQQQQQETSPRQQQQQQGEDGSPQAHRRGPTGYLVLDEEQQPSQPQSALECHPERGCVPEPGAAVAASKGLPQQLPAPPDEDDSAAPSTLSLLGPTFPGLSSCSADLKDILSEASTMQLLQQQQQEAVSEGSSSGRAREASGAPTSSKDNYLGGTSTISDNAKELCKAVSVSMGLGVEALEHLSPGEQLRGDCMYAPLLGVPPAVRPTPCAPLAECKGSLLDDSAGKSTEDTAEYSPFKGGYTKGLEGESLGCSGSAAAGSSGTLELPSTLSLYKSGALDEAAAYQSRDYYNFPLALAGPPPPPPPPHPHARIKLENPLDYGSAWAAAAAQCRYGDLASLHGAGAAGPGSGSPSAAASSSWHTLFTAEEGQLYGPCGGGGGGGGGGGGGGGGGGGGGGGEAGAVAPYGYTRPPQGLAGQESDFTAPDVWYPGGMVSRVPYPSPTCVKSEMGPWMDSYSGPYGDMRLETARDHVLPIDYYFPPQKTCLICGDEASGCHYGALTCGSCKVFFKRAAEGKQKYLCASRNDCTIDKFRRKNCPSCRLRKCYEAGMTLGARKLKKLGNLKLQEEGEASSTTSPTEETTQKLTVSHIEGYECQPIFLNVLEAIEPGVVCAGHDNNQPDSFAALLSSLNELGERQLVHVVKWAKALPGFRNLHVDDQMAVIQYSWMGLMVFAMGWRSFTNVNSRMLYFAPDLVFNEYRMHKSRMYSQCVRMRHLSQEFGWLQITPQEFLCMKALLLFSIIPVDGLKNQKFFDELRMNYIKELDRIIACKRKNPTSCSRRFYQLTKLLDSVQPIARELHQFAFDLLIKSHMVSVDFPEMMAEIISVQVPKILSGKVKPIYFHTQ
Procedure: as §1

SMILES: Cc1nccc2c1[nH]c1cc(O)ccc12 [HH, harmol hydrochloride]
- Nkx3.1 transcription (normalized to RPL19) (endogenous AR [1]; No DHT = 1, 3 nM DHT = 1.08): 1.55
- TMPRSS2 transcription (normalized to RPL19) (endogenous AR [1]; No DHT = 1, 3 nM DHT = 1.13): 1.86
- KLK3 transcription (normalized to RPL19) (endogenous AR [1]; No DHT = 1, 3 nM DHT = 1.97): 1.64
- FKBP51 transcription (normalized to RPL19) (endogenous AR [1]; No DHT = 1, 3 nM DHT = 21.4): 11.96
- RDC1 transcription (normalized to RPL19) (endogenous AR [1]; androgen-repressed gene, No DHT = 1, 3 nM DHT = 0.63): 2.88
- MMP16 transcription (normalized to RPL19) (endogenous AR [1]; androgen-repressed gene, No DHT = 1, 3 nM DHT = 0.71): 4.74
- KLK3 transcription (normalized to RPL19) (endogenous AR [2]; No DHT = 1, 3 nM DHT = 1.89): 1.46
- Nkx3.1 transcription (normalized to RPL19) (endogenous AR [2]; No DHT = 1, 3 nM DHT = 2.00): 1.28
- FKBP51 transcription (normalized to RPL19) (endogenous AR [2]; No DHT = 1, 3 nM DHT = 2.15): 1.90
- TMPRSS2 transcription (normalized to RPL19) (endogenous AR [2]; No DHT = 1, 3 nM DHT = 3.70): 1.22
- MMP16 transcription (normalized to RPL19) (endogenous AR [2]; androgen-repressed gene, No DHT = 1, 3 nM DHT = 0.61): 1.02
- RDC1 transcription (normalized to RPL19) (endogenous AR [2]; androgen-repressed gene, No DHT = 1, 3 nM DHT = 0.66): 1.22
